According to PubChem BioAssay AID1919007 (Molecular Pharmacology Branch, DTP, NCI, 2023):
pIC50: −log10 of the molar value.

Tested on: A498 complex spheroids with HUVEC/MSC, growth
Experiment: Anticancer human tumor A498 cell line growth inhibition [AhR];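 further: seven day exposure starting three days after spheroid seeding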;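 on viability, T/C: luminescence signal used as a surrogate for viable cells; luminescence viability scaled so 100% equals DMSO vehicle wells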
Conditions: for pIC50: curve of first compound; for viability, T/C: stronger effect = lower value; active means viability on the fitted dose curve at most 10% of control; inactive means the rest
In short: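 Agents were dosed in half-log steps down from roughly clinical Cmax, or from 10 microM where Cmax was unknown, alone and with AhR antagonists. Read-out: percent test/control growth of tumor spheroids containing HUVEC and MSC stromal cells.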

[1] = second compound 0.1 µM, first compound 0.000949 µM
[2] = second compound 0.1 µM, first compound 0.003 µM
[3] = second compound 0.1 µM, first compound 0.00949 µM
[4] = second compound 0.1 µM, first compound 0.03 µM
[5] = second compound 0.1 µM, first compound 0.0949 µM
[6] = second compound 0.1 µM, first compound 0.3 µM
[7] = second compound 0.316 µM, first compound 0.000949 µM
[8] = second compound 0.316 µM, first compound 0.003 µM
[9] = second compound 0.316 µM, first compound 0.00949 µM
[10] = second compound 0.316 µM, first compound 0.03 µM
[11] = second compound 0.316 µM, first compound 0.0949 µM
[12] = second compound 0.316 µM, first compound 0.3 µM
[13] = second compound 1 µM, first compound 0.000949 µM
[14] = second compound 1 µM, first compound 0.003 µM
[15] = second compound 1 µM, first compound 0.00949 µM
[16] = second compound 1 µM, first compound 0.03 µM
[17] = second compound 1 µM, first compound 0.0949 µM
[18] = second compound 1 µM, first compound 0.3 µM
[19] = second compound 3.16 µM, first compound 0.000949 µM
[20] = second compound 3.16 µM, first compound 0.003 µM
[21] = second compound 3.16 µM, first compound 0.00949 µM
[22] = second compound 3.16 µM, first compound 0.03 µM
[23] = second compound 3.16 µM, first compound 0.0949 µM
[24] = second compound 3.16 µM, first compound 0.3 µM
[25] = second compound 10 µM, first compound 0.000949 µM
[26] = second compound 10 µM, first compound 0.003 µM
[27] = second compound 10 µM, first compound 0.00949 µM
[28] = second compound 10 µM, first compound 0.03 µM
[29] = second compound 10 µM, first compound 0.0949 µM
[30] = second compound 10 µM, first compound 0.3 µM
[31] = second compound 0.1 µM, first compound 0.0316 µM
[32] = second compound 0.1 µM, first compound 0.1 µM
[33] = second compound 0.1 µM, first compound 0.316 µM
[34] = second compound 0.1 µM, first compound 1 µM
[35] = second compound 0.1 µM, first compound 3.16 µM
[36] = second compound 0.1 µM, first compound 10 µM
[37] = second compound 0.316 µM, first compound 0.0316 µM
[38] = second compound 0.316 µM, first compound 0.1 µM
[39] = second compound 0.316 µM, first compound 0.316 µM
[40] = second compound 0.316 µM, first compound 1 µM
[41] = second compound 0.316 µM, first compound 3.16 µM
[42] = second compound 0.316 µM, first compound 10 µM
[43] = second compound 1 µM, first compound 0.0316 µM
[44] = second compound 1 µM, first compound 0.1 µM
[45] = second compound 1 µM, first compound 0.316 µM
[46] = second compound 1 µM, first compound 1 µM
[47] = second compound 1 µM, first compound 3.16 µM
[48] = second compound 1 µM, first compound 10 µM
[49] = second compound 3.16 µM, first compound 0.0316 µM
[50] = second compound 3.16 µM, first compound 0.1 µM
[51] = second compound 3.16 µM, first compound 0.316 µM
[52] = second compound 3.16 µM, first compound 1 µM
[53] = second compound 3.16 µM, first compound 3.16 µM
[54] = second compound 3.16 µM, first compound 10 µM
[55] = second compound 10 µM, first compound 0.0316 µM
[56] = second compound 10 µM, first compound 0.1 µM
[57] = second compound 10 µM, first compound 0.316 µM
[58] = second compound 10 µM, first compound 1 µM
[59] = second compound 10 µM, first compound 3.16 µM
[60] = second compound 10 µM, first compound 10 µM

CC(C)CC(NC(=O)C(Cc1ccccc1)NC(=O)c1cnccn1)B(O)O (stereo not given) + Cc1cncc(-c2nc(NCCc3c[nH]c4ccccc34)c3ncn(C(C)C)c3n2)c1
8.32: pIC50 (second compound 0.1 µM)
8.29: pIC50 (second compound 0.316 µM)
active: viability, T/C [3] 5.02% | viability, T/C [4] 1.12% | viability, T/C [5] 0.37% | viability, T/C [6] 0.34% | viability, T/C [9] 4.18% | viability, T/C [10] 1.1% | viability, T/C [11] 0.36% | viability, T/C [12] 0.3% | viability, T/C [15] 4.22% | viability, T/C [16] 0.83% | viability, T/C [17] 0.33% | viability, T/C [18] 0.36% | viability, T/C [21] 3.44% | viability, T/C [22] 0.63% | viability, T/C [23] 0.22% | viability, T/C [24] 0.3% | viability, T/C [25] 5.04% | viability, T/C [26] 3.31% | viability, T/C [27] 0.4% | viability, T/C [28] 0.14% | viability, T/C [29] 0.15% | viability, T/C [30] 0.22%
8.33: pIC50 (second compound 1 µM)
8.48: pIC50 (second compound 3.16 µM)
> 9.02: pIC50 (second compound 10 µM)
inactive: viability, T/C [1] 91% | viability, T/C [2] 79.8% | viability, T/C [7] 95.5% | viability, T/C [8] 88.7% | viability, T/C [13] 88.2% | viability, T/C [14] 79.1% | viability, T/C [19] 62.5% | viability, T/C [20] 54.9%

CCc1c2c(nc3ccc(O)cc13)-c1cc3c(c(=O)n1C2)COC(=O)[C@]3(O)CC + Cc1cncc(-c2nc(NCCc3c[nH]c4ccccc34)c3ncn(C(C)C)c3n2)c1
7.63: pIC50 (second compound 1 µM)
inactive: viability, T/C [1] 78.1% | viability, T/C [2] 81.4% | viability, T/C [3] 70.2% | viability, T/C [4] 51% | viability, T/C [5] 39.1% | viability, T/C [6] 35.3% | viability, T/C [7] 85.7% | viability, T/C [8] 76% | viability, T/C [9] 67.1% | viability, T/C [10] 52.7% | viability, T/C [11] 36.7% | viability, T/C [12] 35.2% | viability, T/C [13] 77.1% | viability, T/C [14] 72.8% | viability, T/C [15] 66.8% | viability, T/C [16] 45.4% | viability, T/C [17] 32.4% | viability, T/C [18] 29.1% | viability, T/C [19] 50.7% | viability, T/C [20] 53.5% | viability, T/C [21] 58.1% | viability, T/C [22] 42% | viability, T/C [23] 29.1% | viability, T/C [24] 26.3%
active: viability, T/C [25] 5.42% | viability, T/C [26] 4.3% | viability, T/C [27] 6.41% | viability, T/C [28] 7.12% | viability, T/C [29] 5.73% | viability, T/C [30] 4.65%
7.47: pIC50 (second compound 0.316 µM)
7.48: pIC50 (second compound 0.1 µM)
> 9.02: pIC50 (second compound 10 µM)
7.85: pIC50 (second compound 3.16 µM)

Nc1ccccc1NC(=O)c1ccc(CNC(=O)OCc2cccnc2)cc1 + Cc1cncc(-c2nc(NCCc3c[nH]c4ccccc34)c3ncn(C(C)C)c3n2)c1
5.90: pIC50 (second compound 0.316 µM)
6.66: pIC50 (second compound 3.16 µM)
active: viability, T/C [36] 2.08% | viability, T/C [42] 1.77% | viability, T/C [48] 2.18% | viability, T/C [54] 1.1% | viability, T/C [55] 3.86% | viability, T/C [56] 3.69% | viability, T/C [57] 2.11% | viability, T/C [58] 1.29% | viability, T/C [59] 0.5% | viability, T/C [60] 0.86%
5.94: pIC50 (second compound 1 µM)
5.91: pIC50 (second compound 0.1 µM)
> 7.50: pIC50 (second compound 10 µM)
inactive: viability, T/C [31] 82.6% | viability, T/C [32] 79.7% | viability, T/C [33] 70.5% | viability, T/C [34] 57.8% | viability, T/C [35] 23% | viability, T/C [37] 83.6% | viability, T/C [38] 84% | viability, T/C [39] 84% | viability, T/C [40] 53.7% | viability, T/C [41] 24% | viability, T/C [43] 83.8% | viability, T/C [44] 78.5% | viability, T/C [45] 72.8% | viability, T/C [46] 56.1% | viability, T/C [47] 18.1% | viability, T/C [49] 50.4% | viability, T/C [50] 49.9% | viability, T/C [51] 51.5% | viability, T/C [52] 41.2% | viability, T/C [53] 16.9%

O=C(c1cc(Cc2n[nH]c(=O)c3ccccc23)ccc1F)N1CCN(C(=O)C2CC2)CC1 + Cc1cncc(-c2nc(NCCc3c[nH]c4ccccc34)c3ncn(C(C)C)c3n2)c1
inactive: viability, T/C [31] 96.9% | viability, T/C [32] 93.8% | viability, T/C [33] 89.2% | viability, T/C [34] 88.5% | viability, T/C [35] 89.2% | viability, T/C [36] 87.3% | viability, T/C [37] 102% | viability, T/C [38] 101% | viability, T/C [39] 97.9% | viability, T/C [40] 94.7% | viability, T/C [41] 93.8% | viability, T/C [42] 86% | viability, T/C [43] 92.8% | viability, T/C [44] 89.4% | viability, T/C [45] 93.8% | viability, T/C [46] 88.8% | viability, T/C [47] 84% | viability, T/C [48] 86% | viability, T/C [49] 56.3% | viability, T/C [50] 62.5% | viability, T/C [51] 59.8% | viability, T/C [52] 58.2% | viability, T/C [53] 54.3% | viability, T/C [54] 57.7%
active: viability, T/C [55] 4.54% | viability, T/C [56] 4.29% | viability, T/C [57] 4.31% | viability, T/C [58] 4.01% | viability, T/C [59] 4.31% | viability, T/C [60] 6.37%
> 7.50: pIC50 (second compound 10 µM)
< 5.00: pIC50 (second compound 0.1 µM) | pIC50 (second compound 0.316 µM) | pIC50 (second compound 1 µM) | pIC50 (second compound 3.16 µM)
